Common to all, as to format: in vivo
Test [1] concerns Kochia (Kochia scoparia). Kind of test: Test A preemergence. The note with it: Bassia scoparia, pre-emergence, 240 h; for pest or weed control at 125 g/ha: 125 g ai/ha, preemergence, 0 to 100 scale where 0 is no effect and 100 is complete control, read-out: Kochia plant response rating; for pest or weed control at 500 g/ha: 500 g ai/ha, Preemergence, visual injury vs untreated controls after approximately 10 d, read-out: Kochia plant response rating (0 to 100 scale where 0 is no effect and 100 is complete control). In a few lines:
(§1)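 Preemergence directed soil spray on seeded pots, or postemergence application to plants 2–10 cm, one- to two-leaf. Solvent mixture non-phytotoxic, with surfactant. Scored ~10 d later, visually, 0–100 vs untreated.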

The test system of test [2] is barnyardgrass (Echinochloa crus-galli). Kind of test: Test A preemergence. The settings on record: Echinochloa crus-galli, pre-emergence, 240 h; for pest or weed control at 125 g/ha: 125 g ai/ha, preemergence, 0 to 100 scale where 0 is no effect and 100 is complete control, read-out: Barnyardgrass plant response rating; for pest or weed control at 500 g/ha: 500 g ai/ha, Preemergence, visual injury vs untreated controls after approximately 10 d, read-out: Barnyardgrass plant response rating (0 to 100 scale where 0 is no effect and 100 is complete control). The method in brief:
as §1

The test system of test [3] is giant foxtail (Setaria faberii). Kind of test: Test A preemergence. The note with it: Setaria faberi, pre-emergence, 240 h; for pest or weed control at 125 g/ha: 125 g ai/ha, preemergence, 0 to 100 scale where 0 is no effect and 100 is complete control, read-out: Foxtail, Giant plant response rating; for pest or weed control at 500 g/ha: 500 g ai/ha, Preemergence, visual injury vs untreated controls after approximately 10 d, read-out: Foxtail, Giant plant response rating (0 to 100 scale where 0 is no effect and 100 is complete control). The method in brief:
as §1

Test [4] concerns pigweed (Amaranthus retroflexus). Kind of test: Test A preemergence. The note with it: Amaranthus retroflexus, pre-emergence, 240 h; for pest or weed control at 125 g/ha: 125 g ai/ha, preemergence, 0 to 100 scale where 0 is no effect and 100 is complete control, read-out: Pigweed plant response rating; for pest or weed control at 500 g/ha: 500 g ai/ha, Preemergence, visual injury vs untreated controls after approximately 10 d, read-out: Pigweed plant response rating (0 to 100 scale where 0 is no effect and 100 is complete control).

Test [5] deals with ragweed (common ragweed, Ambrosia elatior). Kind of test: Test A preemergence. The settings on record: Ambrosia artemisiifolia, pre-emergence, 240 h; for pest or weed control at 125 g/ha: 125 g ai/ha, preemergence, 0 to 100 scale where 0 is no effect and 100 is complete control, read-out: Ragweed plant response rating; for pest or weed control at 500 g/ha: 500 g ai/ha, Preemergence, visual injury vs untreated controls after approximately 10 d, read-out: Ragweed plant response rating (0 to 100 scale where 0 is no effect and 100 is complete control). The method in brief:
as §1

Test [6] concerns ryegrass, Italian (Italian ryegrass, Lolium multiflorum). Kind of test: Test A preemergence. The settings on record: Lolium multiflorum, pre-emergence, 240 h; for pest or weed control at 125 g/ha: 125 g ai/ha, preemergence, 0 to 100 scale where 0 is no effect and 100 is complete control, read-out: Ryegrass, Italian plant response rating; for pest or weed control at 500 g/ha: 500 g ai/ha, Preemergence, visual injury vs untreated controls after approximately 10 d, read-out: Ryegrass, Italian plant response rating (0 to 100 scale where 0 is no effect and 100 is complete control). The method in brief: as §1

For test [7], the system named is Galium (catchweed bedstraw, Galium aparine). The test can be described thus: Test A postemergence. The settings on record: Galium, post-emergence, 240 h, 125 g ai/ha, postemergence, visual injury rating after approximately 10 d; read-out: Galium plant response rating (0 to 100 scale, 0 no effect, 100 complete control). The method in brief: as §1
Test [8] deals with Kochia (Kochia scoparia). Kind of test: Test A postemergence. The settings on record: Bassia scoparia, post-emergence, 240 h, 125 g ai/ha, postemergence, visual injury rating after approximately 10 d; read-out: Kochia plant response rating (0 to 100 scale, 0 no effect, 100 complete control). In a few lines:
as §1

Test [9] deals with barnyardgrass (Echinochloa crus-galli). The test can be described thus: Test A postemergence. The settings on record: Echinochloa crus-galli, post-emergence, 240 h, 125 g ai/ha, postemergence, visual injury rating after approximately 10 d; read-out: Barnyardgrass plant response rating (0 to 100 scale, 0 no effect, 100 complete control). The method in brief: as §1
Test [10] concerns blackgrass (Alopecurus myosuroides). Kind of test: Test A postemergence. The note with it: Alopecurus myosuroides, post-emergence, 240 h, 125 g ai/ha, postemergence, visual injury rating after approximately 10 d; read-out: Blackgrass plant response rating (0 to 100 scale, 0 no effect, 100 complete control). In a few lines: as §1
A further test deals with corn (Zea mays). Kind of test: Test A postemergence. The settings on record: Zea mays, post-emergence, 240 h, 125 g ai/ha, postemergence, visual injury rating after approximately 10 d; read-out: Corn plant response rating (0 to 100 scale, 0 no effect, 100 complete control). The method in brief: as §1
Test [11] concerns giant foxtail (Setaria faberii). Kind of test: Test A postemergence. The note with it: Setaria faberi, post-emergence, 240 h, 125 g ai/ha, postemergence, visual injury rating after approximately 10 d; read-out: Foxtail, Giant plant response rating (0 to 100 scale, 0 no effect, 100 complete control). The method in brief: as §1
The test system of test [12] is ragweed (common ragweed, Ambrosia elatior). The test can be described thus: Test A postemergence. The note with it: Ambrosia artemisiifolia, post-emergence, 240 h, 125 g ai/ha, postemergence, visual injury rating after approximately 10 d; read-out: Ragweed plant response rating (0 to 100 scale, 0 no effect, 100 complete control). In a few lines: as §1
In test [13] the test system is ryegrass, Italian (Italian ryegrass, Lolium multiflorum). The test can be described thus: Test A postemergence. The settings on record: Lolium multiflorum, post-emergence, 240 h, 125 g ai/ha, postemergence, visual injury rating after approximately 10 d; read-out: Ryegrass, Italian plant response rating (0 to 100 scale, 0 no effect, 100 complete control). The method in brief: as §1

For test [14], the system named is wheat (Triticum aestivum). Kind of test: Test A postemergence. The note with it: Triticum aestivum, post-emergence, 240 h, 125 g ai/ha, postemergence, visual injury rating after approximately 10 d; read-out: Wheat plant response rating (0 to 100 scale, 0 no effect, 100 complete control). In a few lines:
as §1

We go through two compounds from patent publication US12077503B2, “Substituted cyclic amides and their use as herbicides” (FMC CORPORATION, priority 2015, dated 2024).

Regarding `CN1C[C@H](c2cc(F)cc(F)c2)[C@@H](C(=O)Nc2ccc(C(F)(F)F)nc2)C1=O` [Compound 870], the pest or weed control at 125 g/ha is 0% in the test on Kochia (Kochia scoparia) [1]; 50% in test [2]; 20% in test [3]; 0% in test [4]; 0% in test [5]; 0% in test [6]. Further, the pest or weed control at 125 g/ha (in test [7]; in the test on Kochia (Kochia scoparia) [8]; in test [9]; in test [10]; in [11]; in test [12]) was 0% in each case. Further, in test [13], the pest or weed control at 125 g/ha came to 0%. Besides, the pest or weed control at 500 g/ha was 0% with Kochia (Kochia scoparia) [1]; 80% in test [2]; 50% in test [3]; 0% in test [4]; 0% in test [5]; 0% in test [6]. Moreover, the plant injury at 125 g/ha (with corn (Zea mays); in test [14]) was 0% each time.

As to `COc1c(F)ccc([C@H]2CN(C)C(=O)[C@@H]2C(=O)Nc2ccccc2S(C)(=O)=O)c1Cl` [Compound 897], the pest or weed control at 125 g/ha with Kochia (Kochia scoparia) [1] turned out to be 60%; in [2], 80%; in test [3], 90%; in test [4] it was 30%; in test [5], 20%; in test [6] it was 20%. For the same compound, the pest or weed control at 125 g/ha was determined as 40% in test [7]; 30% with Kochia (Kochia scoparia) [8]; 90% in test [9]; 30% in [10]; 80% in test [11]; 20% in test [12]. Moreover, the pest or weed control at 125 g/ha in [13] turned out to be 20%. Besides, the pest or weed control at 500 g/ha in the test on Kochia (Kochia scoparia) [1] was found to be 90%; in [2], 90%; in [3], 100%; in test [4], 60%; in [5], 60%; in [6] it was 50%. Moreover, the plant injury at 125 g/ha (in the test on corn (Zea mays); in [14]) was 30% each time.
